The target in assay [1] is T1, Human HDAC1 (Homo sapiens, UniProt Q13547).
T1 construct: full length with C-terminal His-tag and C-terminal FLAG-tag; His-tag (C); FLAG-tag (C); host or cells: baculovirus expression system
As to the kind of experiment: Biochemical HDAC inhibition assay, acetylated AMC-labeled peptide substrate, HDAC1. To be noted: 2 hours at 30° C., read-out: IC50 (nM) HDAC 1. As for the experimental part: (§1) Activity against all zinc-dependent HDACs 1 to 11 was assessed by using an acetylated AMC-labeled peptide substrate. The substrate RHKKAc was used for all class I and IIb HDACs; for HDAC8, the substrate used was RHKAcKAc. Activity against the class IIa HDACs (HDAC4, 5, 7, 9) was determined using a class IIa-specific substrate, Acetyl-Lys(trifluoroacetyl)-AMC (Lahm et al, 2007, PNAS, 104, 17335-17340). All assays were based on the AMC-labeled substrate and developer combination.
(§2) The protocol involved a two-step reaction: first, the substrate with the acetylated lysine side chain is incubated with a sample containing HDAC activity, to produce the deacetylated products, which are then digested in the second step by the addition of developer to produce the fluorescent signal proportional to the amount of deacetylated substrates.
Human HDAC1 (GenBank Accession No. NM_004964), full length with C-terminal His-tag and C-terminal FLAG-tag, MW=56 kDa, expressed in baculovirus expression system.
(§3) Assay Buffer: 50 mM Tris-HCl, pH8.0, 137 mM NaCl, 2.7 mM KCl, 1 mM MgCl2. Before use, 1 mg/mL BSA and DMSO are added.
HDAC1: 2.68 nM HDAC1 and 50 m M HDAC substrate are in the reaction buffer with 1% DMSO final. Incubate for 2 hours at 30° C.
(§4) Stage 1: Deacetylation of substrate by incubation of HDAC enzymes with corn pounds
(§5) Stage 2: Development by addition of Developer to digest the deacetylated substrate, and generate the fluorescent colour; Detection: 360/460 Ex/Em

Assay [2] concerns the target T2, Recombinant human HDAC6 (Homo sapiens, UniProt Q9UBN7).
T2 construct: full length, MW=180 kDa, was expressed by baculovirus in Sf9 insect cells; GST (N); host or cells: Sf9 insect cells (baculovirus)
T2 sequence (Q9UBN7 1-1215): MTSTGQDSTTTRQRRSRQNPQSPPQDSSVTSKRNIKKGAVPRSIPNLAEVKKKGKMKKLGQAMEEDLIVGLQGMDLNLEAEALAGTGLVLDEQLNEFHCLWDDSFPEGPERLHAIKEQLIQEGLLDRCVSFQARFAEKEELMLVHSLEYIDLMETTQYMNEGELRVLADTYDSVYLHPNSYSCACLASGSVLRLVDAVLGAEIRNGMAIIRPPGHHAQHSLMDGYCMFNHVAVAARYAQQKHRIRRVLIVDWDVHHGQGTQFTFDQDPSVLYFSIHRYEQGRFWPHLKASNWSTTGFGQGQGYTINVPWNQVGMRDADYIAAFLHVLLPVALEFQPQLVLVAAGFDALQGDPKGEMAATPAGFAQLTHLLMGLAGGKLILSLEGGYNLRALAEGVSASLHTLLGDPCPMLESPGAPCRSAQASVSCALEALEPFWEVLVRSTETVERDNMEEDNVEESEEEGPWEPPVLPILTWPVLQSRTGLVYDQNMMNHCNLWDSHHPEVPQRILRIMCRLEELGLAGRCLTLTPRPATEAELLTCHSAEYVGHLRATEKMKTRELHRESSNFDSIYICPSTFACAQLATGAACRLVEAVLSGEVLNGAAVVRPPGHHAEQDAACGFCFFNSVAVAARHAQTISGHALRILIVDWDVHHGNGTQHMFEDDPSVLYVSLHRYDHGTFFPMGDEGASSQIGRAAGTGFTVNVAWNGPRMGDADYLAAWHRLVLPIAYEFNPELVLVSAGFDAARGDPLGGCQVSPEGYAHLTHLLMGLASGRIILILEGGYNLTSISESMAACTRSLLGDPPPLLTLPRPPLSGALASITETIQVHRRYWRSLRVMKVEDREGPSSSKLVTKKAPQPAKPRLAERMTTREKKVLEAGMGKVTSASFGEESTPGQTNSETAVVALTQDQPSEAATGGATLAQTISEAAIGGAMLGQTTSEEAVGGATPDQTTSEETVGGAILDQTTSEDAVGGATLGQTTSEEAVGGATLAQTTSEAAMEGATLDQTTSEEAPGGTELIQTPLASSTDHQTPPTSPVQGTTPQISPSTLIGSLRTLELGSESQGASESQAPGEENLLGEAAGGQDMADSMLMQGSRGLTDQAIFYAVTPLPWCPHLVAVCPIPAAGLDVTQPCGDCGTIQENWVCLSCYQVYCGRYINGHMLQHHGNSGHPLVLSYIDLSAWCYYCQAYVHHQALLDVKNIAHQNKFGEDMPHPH
The assay can be described thus: Biochemical HDAC inhibition assay, acetylated AMC-labeled peptide substrate, HDAC6. To be noted: 2 hours at 30° C., read-out: IC50 (nM) HDAC 6. Here is the method: as §1, §2
Recombinant human HDAC6 (GenBank Accession No. BC069243), full length, MW=180 kDa, was expressed by baculovirus in Sf9 insect cells using an N-terminal GST tag.
as §3
HDAC6: 0.56 nM HDAC6 and […] HDAC substrate are in the reaction buffer with 1% DMSO final. Incubate for 2 hours at 30° C.
as §4, §5

T1 sequence (Q13547 whole entry): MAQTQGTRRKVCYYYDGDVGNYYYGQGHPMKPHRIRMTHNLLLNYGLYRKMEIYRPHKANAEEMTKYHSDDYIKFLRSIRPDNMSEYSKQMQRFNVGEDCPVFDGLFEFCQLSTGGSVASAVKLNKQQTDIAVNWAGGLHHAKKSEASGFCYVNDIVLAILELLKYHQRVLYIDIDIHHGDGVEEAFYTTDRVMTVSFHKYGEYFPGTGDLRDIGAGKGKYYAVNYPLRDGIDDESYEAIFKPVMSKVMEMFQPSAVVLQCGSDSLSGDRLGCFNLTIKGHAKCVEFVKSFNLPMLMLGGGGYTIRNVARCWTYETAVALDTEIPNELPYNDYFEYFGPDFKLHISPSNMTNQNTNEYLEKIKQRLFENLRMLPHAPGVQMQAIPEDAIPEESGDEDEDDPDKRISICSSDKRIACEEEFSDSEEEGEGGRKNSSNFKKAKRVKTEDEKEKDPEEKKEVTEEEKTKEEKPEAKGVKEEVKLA

As for `O=C(NO)c1ccc(CN(c2cnccn2)c2cc(-c3ccc4[nH]ccc4c3)ccn2)cc1` [Example C, N-Hydroxy-4-({[4-(1H-indol-5-yl)pyridin-2-yl](pyrazin-2-yl)amino}methyl)benzamide], the IC50 is 500 to 1000 nM in assay [1] and not above 500 nM in assay [2].
Regarding `Cc1noc(C)c1-c1ccnc(N(Cc2ccc(C(=O)NO)cc2)c2cnccn2)c1` [Example H, 4-({[4-(Dimethyl-1,2-oxazol-4-yl)pyridin-2-yl](pyrazin-2-yl)amino}methyl)-N-hydroxybenzamide], the IC50 in assay [1] is not below 10000 nM; in assay [2] it was not above 500 nM.
Taken in the same sequence, the figures for `Cc1n[nH]c(C)c1-c1ccnc(N(Cc2ccc(C(=O)NO)cc2)c2cnccn2)c1` [Example J, 4-({[4-(3,5-Dimethyl-1H-pyrazol-4-yl)pyridin-2-yl](pyrazin-2-yl)amino}methyl)-N-hydroxybenzamide] were 1000 to 10000 nM and not above 500 nM.
On to `CC(=O)Nc1ccc(-c2ccnc(N(Cc3ccc(C(=O)NO)cc3F)c3cnccn3)c2)cn1` [Example R, 4-({[4-(6-Acetamidopyridin-3-yl)pyridin-2-yl](pyrazin-2-yl)amino}methyl)-3-fluoro-N-hydroxybenzamide], for which the IC50 in assay [1] was 1000 to 10000 nM; in assay [2], not above 500 nM.
For `Nc1ccc(-c2ccnc(N(Cc3ccc(C(=O)NO)cc3F)c3cnccn3)c2)cn1` [Example P, 4-({[4-(6-Aminopyridin-3-yl)pyridin-2-yl](pyrazin-2-yl)amino}methyl)-3-fluoro-N-hydroxybenzamide], the half-maximal inhibitory concentration (IC50) in assay [1] is 500 to 1000 nM; in assay [2], not above 500 nM.
On to `O=C(NO)c1ccc(CN(c2cnccn2)c2cc(-c3c[nH]c4ncccc34)ccn2)cc1` [Example K, N-Hydroxy-4-{[(pyrazin-2-yl)(4-{1H-pyrrolo[2,3-b]pyridin-3-yl}pyridin-2-yl)amino]methyl}benzamide], for which the figures for the IC50 in assay [1] and in assay [2] were 1000 to 10000 nM and not above 500 nM, respectively.
Taken in the same sequence, the figures for `Cc1n[nH]cc1-c1ccnc(N(Cc2ccc(C(=O)NO)cc2)c2cnccn2)c1` [Example I, N-Hydroxy-4-({[4-(3-methyl-1H-pyrazol-4-yl)pyridin-2-yl](pyrazin-2-yl)amino}methyl)benzamide] were not below 10000 nM and not above 500 nM.
For the molecule `O=C(NO)c1ccc(CN(c2cnccn2)c2cc(-c3cnc4[nH]ccc4c3)ccn2)cc1` [Example B, N-Hydroxy-4-{[(pyrazin-2-yl)(4-{1H-pyrrolo[2,3-b]pyridin-5-yl}pyridin-2-yl)amino]methyl}benzamide], the IC50 in assay [1] is 1000 to 10000 nM; in assay [2] it was not above 500 nM.
The matching figures for `Nc1ncc(-c2ccnc(N(Cc3ccc(C(=O)NO)cc3)c3cnccn3)c2)cn1` [Example A, 4-({[4-(2-Aminopyrimidin-5-yl)pyridin-2-yl](pyrazin-2-yl)amino}methyl)-N-hydroxybenzamide]: 1000 to 10000 nM and not above 500 nM.
Taken in the same sequence, the figures for `Nc1ncc(-c2ccnc(N(Cc3ccc(C(=O)NO)cc3)c3cnccn3)c2)cc1F` [Example M, 4-({[4-(6-Amino-5-fluoropyridin-3-yl)pyridin-2-yl](pyrazin-2-yl)amino}methyl)-N-hydroxybenzamide] were 1000 to 10000 nM and not above 500 nM.
In the case of `Nc1cc(-c2ccnc(N(Cc3ccc(C(=O)NO)cc3F)c3cnccn3)c2)ccn1` [Example Q, 4-({[4-(2-Aminopyridin-4-yl)pyridin-2-yl](pyrazin-2-yl)amino}methyl)-3-fluoro-N-hydroxybenzamide], the IC50 in assay [1] is 1000 to 10000 nM; in assay [2] it was not above 500 nM.
The matching figures for `CS(=O)(=O)Nc1cc(-c2ccnc(N(Cc3ccc(C(=O)NO)cc3F)c3cnccn3)c2)ccn1` [Example U, 3-Fluoro-N-hydroxy-4-({[4-(2-methanesulfonamidopyridin-4-yl)pyridin-2-yl](pyrazin-2-yl)amino}methyl)benzamide]: not below 10000 nM and not above 500 nM.
The matching figures for `O=C(NO)c1ccc(CN(c2cnccn2)c2cc(-c3ccoc3)ccn2)cc1` [Example E, 4-({[4-(Furan-3-yl)pyridin-2-yl](pyrazin-2-yl)amino}methyl)-N-hydroxybenzamide]: 500 to 1000 nM and not above 500 nM.
For `CC(=O)Nc1cc(-c2ccnc(N(Cc3ccc(C(=O)NO)cc3)c3cnccn3)c2)ccn1` [Example O, 4-({[4-(2-Acetamidopyridin-4-yl)pyridin-2-yl](pyrazin-2-yl)amino}methyl)-N-hydroxybenzamide], the IC50 in assay [1] is 1000 to 10000 nM; in assay [2], not above 500 nM.
On to `O=C(NO)c1ccc(CN(c2cnccn2)c2cc(-c3cn[nH]c3)ccn2)cc1` [Example D, N-Hydroxy-4-{[(pyrazin-2-yl)[4-(1H-pyrazol-4-yl)pyridin-2-yl]amino]methyl}benzamide], for which the IC50 in assay [1] was 1000 to 10000 nM; in assay [2] it was not above 500 nM.
On to `CS(=O)(=O)Nc1ccc(-c2ccnc(N(Cc3ccc(C(=O)NO)cc3F)c3cnccn3)c2)cn1` [Example T, 3-Fluoro-N-hydroxy-4-({[4-(6-methanesulfonamidopyridin-3-yl)pyridin-2-yl](pyrazin-2-yl)amino}methyl)benzamide], for which the IC50 is not below 10000 nM in assay [1] and not above 500 nM in assay [2].
On to `O=C(NO)c1ccc(CN(c2cnccn2)c2cc(-c3c[nH]nc3C(F)(F)F)ccn2)cc1` [Example G, N-Hydroxy-4-{[(pyrazin-2-yl)({4-[3-(trifluoromethyl)-1H-pyrazol-4-yl]pyridin-2-yl})amino]methyl}benzamide], for which the IC50 in assay [1] is 1000 to 10000 nM; in assay [2] it was not above 500 nM.
The matching figures for `O=C(NO)c1ccc(CN(c2cnccn2)c2cc(-c3cc[nH]n3)ccn2)cc1` [Example L, N-Hydroxy-4-{[(pyrazin-2-yl)[4-(1H-pyrazol-3-yl)pyridin-2-yl]amino]methyl}benzamide]: 1000 to 10000 nM and not above 500 nM.
Taken in the same sequence, the figures for `Cc1cc(-c2ccnc(N(Cc3ccc(C(=O)NO)cc3)c3cnccn3)c2)c(C)o1` [Example F, 4-({[4-(2,5-Dimethylfuran-3-yl)pyridin-2-yl](pyrazin-2-yl)amino}methyl)-N-hydroxybenzamide] were 1000 to 10000 nM and not above 500 nM.
For the molecule `CC(=O)Nc1cc(-c2ccnc(N(Cc3ccc(C(=O)NO)cc3F)c3cnccn3)c2)ccn1` [Example S, 4-({[4-(2-Acetamidopyridin-4-yl)pyridin-2-yl](pyrazin-2-yl)amino}methyl)-3-fluoro-N-hydroxybenzamide], the values for the IC50 in assay [1] and in assay [2] were 1000 to 10000 nM and not above 500 nM, respectively.
In the case of `CC(=O)Nc1ccc(-c2ccnc(N(Cc3ccc(C(=O)NO)cc3)c3cnccn3)c2)cn1` [Example N, 4-({[4-(6-Acetamidopyridin-3-yl)pyridin-2-yl](pyrazin-2-yl)amino}methyl)-N-hydroxybenzamide], the results for the IC50 in assay [1] and in assay [2] were 1000 to 10000 nM and not above 500 nM, respectively.

In general, IC50 refers to the concentration at which inhibition is half-maximal.

Source of the values: patent US10533003B2, “Polyheteroarl histone deacetylase inhibitors and their use in therapy” (Karus Therapeutics Limited, priority 2014, dated 2020).
